Assay results reported in paper PMC5781198 (Influenza and Other Respiratory Viruses, 2013).
Entries after “also recorded” stand apart in the source; their conditions may differ.

Tests used:
[1] = tested on: A/Puerto Rico/05/2011 NA (D199N); format: biochemical, Influenza A(H1N1)pdm09 virus
[2] = tested on: B/British Columbia/RV1383/2011 NA (T106N); format: biochemical, Influenza B virus (Yamagata)
[3] = tested on: A/Bolivia/603/2011 NA (D151G); format: biochemical, Influenza A(H3N2) virus
[4] = tested on: A/Alberta/RV1242/2011 NA (H275H/Y, D199D/N); format: biochemical, Influenza A(H1N1)pdm09 virus
[5] = tested on: A/Vietnam/108/2011 NA (F174V); format: biochemical, Influenza A(H1N1)pdm09 virus
[6] = tested on: A/Santiago/14689/2011 NA (N325K); format: biochemical, Influenza A(H1N1)pdm09 virus
[7] = tested on: B/Bangladesh/4013/2011 NA (A136S); format: biochemical, Influenza B virus (Victoria)
[8] = target: B/Ontario/1256/2011 NA (G140R, N144K) (Influenza B virus, UniProt P27907, G140R/N143K); format: biochemical, Influenza B virus (Victoria)
[9] = tested on: A/Santiago/15706/2011 NA (G460S); format: biochemical, Influenza A(H1N1)pdm09 virus
[10] = target: B/Guatemala/16/2011 NA (S244P) (Influenza B virus, UniProt P27907, S243P); format: biochemical, Influenza B virus (Victoria)
[11] = target: B/Dominican Republic/5506/2011 NA (H273Y) (Influenza B virus, UniProt P27907, H272Y); format: biochemical, Influenza B virus (Victoria)
[12] = tested on: A/Bolivia/258/2011 NA (D199N); format: biochemical, Influenza A(H1N1)pdm09 virus
[13] = tested on: A/Dominican Republic/5507/2011 NA (S247N); format: biochemical, Influenza A(H1N1)pdm09 virus
[14] = target: B/Bangladesh/8008/2011 NA (I120V) (Influenza B virus, UniProt P27907, I119V); format: biochemical, Influenza B virus (Victoria)
[15] = target: B/Ontario/006876/2011 NA (H273Y) (Influenza B virus, UniProt P27907, H272Y); format: biochemical, Influenza B virus (Yamagata)
[16] = target: B/Kenya/9528/2011 NA (M403V) (Influenza B virus, UniProt P27907, M402V); format: biochemical, Influenza B virus (Victoria)
[17] = tested on: B/Ontario/006876/2011 NA (H273Y); details: cited from earlier work

In the case of CCC(CC)[C@H](NC(C)=O)[C@@H]1[C@H](O)[C@@H](C(=O)O)C[C@H]1N=C(N)N [Peramivir, peramivir], the “fold difference in IC50” value [1] is reported as 0·21 (4) fold, the “fold difference in IC50” value [2] is reported as 0·85 (2) fold and the “fold difference in IC50” value [3] is reported as 0·08 (1) fold. The “IC50 relative to isolate A/Puerto Rico/09/2011 (dominant H275Y)” value [4] was “approximately threefold less; also recorded: three times less resistant”, the “fold difference in IC50” value [5] was 0·06 (1) fold and the susceptibility in words [6] was “mildly reduced sensitivity”. For the same compound, the “fold difference in IC50” value [7] was 4·77 (6) fold, the “fold difference in IC50” value [8] was 210·68 (257) fold and the “fold greater IC50 than the mean IC50 for the drug for all B viruses” value (“fold greater IC50 than the mean IC50” for short) [8] was 277 fold. The susceptibility in words [8] was “significantly reduced susceptibility”, the “fold difference in IC50” value [9] was 0·26 (4) fold and the “fold difference in IC50” value [10] was 0·60 (1) fold. For the same compound, the susceptibility in words [10] was “sensitive”, the “fold difference in IC50” value [11] was 12·43 (15) fold and the “fold greater IC50 than the mean IC50” value [11] was 16 fold. The “fold difference in IC50” value [12] was 0·09 (2) fold, the “fold difference in IC50” value [13] was 0·15 (3) fold and the “fold difference in IC50” value [14] was 4·36 (5) fold. The “fold difference in IC50” value [15] was 33·49 (62) fold, the “fold greater IC50 than the mean IC50” value [15] was 44 fold and the “fold difference in IC50” value [16] was 3·59 (4) fold. For the same compound, the susceptibility in words [17] was “reduced susceptibility”.

For CC(=O)N[C@H]1[C@H]([C@H](O)[C@H](O)CO)OC(C(=O)O)=C[C@@H]1N=C(N)N [Zanamivir, zanamivir], the susceptibility in words [6] was “mildly reduced sensitivity”, the susceptibility in words [8] was “significantly reduced susceptibility” and the susceptibility in words [10] was “mild outlier”.
